From EP4467535A1, “LACTAM PESTICIDAL COMPOUNDS” (priority 2023, dated 2024) come the findings set out here.

Holding throughout (format): in vivo
Experiment [1] has as its system Orchid thrips (Dichromothrips corbetti). In words: Action on Orchid thrips (Dichromothrips corbetti), floral-immersion technique. As to conditions: adult thrips on dipped orchid petals, 72 hours after treatment, read-out: mortality in comparison with untreated controls. The protocol:
Example B2: Action on Orchid thrips (Dichromothrips corbetti)
Dichromothrips corbetti adults used for bioassay were obtained from a colony maintained continuously under laboratory conditions. For testing purposes, the test compound is diluted in a 1:1 mixture of acetone:water (vol:vol), plus Kinetic® HV at a rate of 0.01% v/v.
Thrips potency of each compound was evaluated by using a floral-immersion technique. All petals of individual, intact orchid flowers were dipped into treatment solution and allowed to dryin Petri dishes. Treated petals were placed into individual re-sealable plastic along with about 20 adult thrips. All test arenas were held under continuous light and a temperature of about 28°C for duration of the assay. After 3 days, the numbers of live thrips were counted on each petal. The percent mortality was recorded 72 hours after treatment.

Experiment [2] deals with Yellow fever mosquito (Aedes aegypti). The experiment in a line: whole plant or invertebrate. As to conditions: 48 h, larval mortality visually assessed after 2 days at 28 ± 1°C, read-out: mortality in comparison with untreated controls. The protocol: Example B1: Action on Yellow fever mosquito (Aedes aegypti)
For evaluating control of yellow fever mosquito (Aedes aegypti) the test unit consisted of 96-well-microtiter plates containing 200µL of tap water per well and 5-15 freshly hatched A. aegypti larvae.
The active compounds or mixtures were formulated using a solution containing 75% (v/v) water and 25% (v/v) DMSO. Different concentrations of formulated compounds or mixtures were sprayed onto the insect diet at 2.5µL, using a custom-built micro atomizer, at two replications.
For experimental mixtures in these tests identical volumes of both mixing partners at the desired concentrations respectively, were mixed together.
After application, microtiter plates were incubated at 28 ± 1°C, 80 ± 5 % relative humidity for 2 days. Larval mortality was then visually assessed.

The test system of experiment [3] is Diamond back moth (Plutella xylostella). In words: Action on Diamond back moth (Plutella xylostella), cabbage leaf dip test. As to conditions: foliar, third instar larvae on dipped cabbage leaves, 72 hours after treatment, read-out: mortality in comparison with untreated controls. The protocol:
Example B6: Action on Diamond back moth (Plutella xylostella)
The active compound is dissolved at the desired concentration in a mixture of 1:1 (v/v) distilled water: acetone. Surfactant (Kinetic® HV) is added at a rate of 0.01% (v/v). The test solution is prepared at the day of use.
Leaves of cabbage were dipped in test solution and air-dried. Treated leaves were placed in petri dishes lined with moist filter paper and inoculated with ten third instar larvae. Mortality was recorded 72 hours after treatment. Feeding damages were also recorded using a scale of 0-100%.

The test system of experiment [4] is Southern armyworm (Spodoptera eridania), second instar larvae. The experiment in a line: Action on Southern armyworm (Spodoptera eridania), sprayed lima bean plants. As to conditions: 96 h, 4 days after treatment, read-out: mortality in comparison with untreated controls. The protocol:
Example B7: Action on Southern armyworm (Spodoptera eridania), second instar larvae
The active compounds were formulated by a Tecan liquid handler in 100% cyclohexanone as a 10,000 ppm solution supplied in tubes. The 10,000 ppm solution was serially diluted in 100% cyclohexanone to make interim solutions. These served as stock solutions for which final dilutions were made by the Tecan in 50% acetone:50% water (v/v) into 10 or 20 mL glass vials. A nonionic surfactant (Kinetic®) was included in the solution at a volume of 0.01% (v/v). The vials were then inserted into an automated electrostatic sprayer equipped with an atomizing nozzle for application to plants/insects.
Lima bean plants (variety Sieva) were grown 2 plants to a pot and selected for treatment at the 1st true leaf stage. Test solutions were sprayed onto the foliage by an automated electrostatic plant sprayer equipped with an atomizing spray nozzle. The plants were dried in the sprayer fume hood and then removed from the sprayer. Each pot was placed into perforated plastic bags with a zip closure. About 10 to 11 armyworm larvae were placed into the bag and the bags zipped closed. Test plants were maintained in a growth room at about 25°C and about 20-40% relative humidity for 4 days, avoiding direct exposure to fluorescent light (24 hour photoperiod) to prevent trapping of heat inside the bags. Mortality and reduced feeding were assessed 4 days after treatment, compared to untreated control plants.

The subject of experiment [5] is Boll weevil (Anthonomus grandis). The experiment in a line: Action on Boll weevil (Anthonomus grandis), 96-well microtiter plate insect diet test. As to conditions: 120 h, egg and larval mortality visually assessed after 5 days, read-out: mortality in comparison with untreated controls. The protocol: Example B3: Action on Boll weevil (Anthonomus grandis )
For evaluating control of boll weevil (Anthonomus grandis) the test unit consisted of 96-well-microtiter plates containing an insect diet and 5-10 A. grandis eggs.
The compounds were formulated using a solution containing 75% (v/v) water and 25% (v/v) DMSO. Different concentrations of formulated compounds were sprayed onto the insect diet at 5 µL, using a custom-built micro atomizer, at two replications.
After application, microtiter plates were incubated at about 25 + 1°C and about 75 + 5 % relative humidity for 5 days. Egg and larval mortality were then visually assessed.

Experiment [6] concerns Tobacco budworm (Heliothis virescens). In words: Action on Tobacco budworm (Heliothis virescens), 96-well microtiter plate insect diet test. As to conditions: 120 h, egg and larval mortality visually assessed after 5 days, read-out: mortality in comparison with untreated controls. The protocol:
Example B5: Action on Tobacco budworm (Heliothis virescens)
For evaluating control of tobacco budworm (Heliothis virescens) the test unit consisted of 96-well-microtiter plates containing an insect diet and 15-25 H. virescens eggs.
The compounds were formulated using a solution containing 75% v/v water and 25% v/v DMSO. Different concentrations of formulated compounds were sprayed onto the insect diet at 10 µl, using a custom-built micro atomizer, at two replications.
After application, microtiter plates were incubated at about 28 + 1°C and about 80 + 5 % relative humidity for 5 days. Egg and larval mortality were then visually assessed.

The subject of experiment [7] is Diamond back moth (Plutella xylostella). In words: Action on Diamond back moth (Plutella xylostella), 96-well microtiter plate insect diet test. As to conditions: 120 h, read-out: mortality in comparison with untreated controls. The protocol:
Example B8: Action on Diamond back moth (Plutella xylostella)
For evaluating control of diamond back moth (Plutella xylostella) the test unit consisted of 96-well-microtiter plates containing an insect diet and 15-25 P. xylostella eggs. The compounds or mixtures were formulated using a solution containing 75% water and 25% DMSO. Different concentrations of formulated compounds or mixtures were sprayed onto the insect diet at 5µl, using a custom-built micro atomizer, at two replications. For experimental mixtures in these tests identical volumes of both mixing partners at the desired concentrations respectively, were mixed together. After application, microtiter plates were incubated at 28 ± 1°C, 80 ± 5 % relative humidity for 5 days. Egg and larval mortality was then visually assessed.

Take `Cc1ccc(C(C)C)c(NC(=S)N/N=C/c2ccc(-c3nn(C)c(N4Cc5cc(OC(F)(F)F)ccc5C4=O)c3C)cc2)c1` [C-1, 1-[(E)-[4-[1,4-dimethyl-5-[1-oxo-5-(trifluoromethoxy)isoindolin-2-yl]pyrazol-3-yl]phenyl]methyleneamino]-3-(2-isopropyl-5-methyl-phenyl)thiourea]: the mortality at 300 ppm in experiment [1], in experiment [3] and in experiment [4] was at least 75% each time. Further, the mortality (in general, the percentage killed) at 800 ppm in experiment [2] was at least 50%; in experiment [5], at least 75%; in experiment [6], at least 75%.

For the compound `Cc1ccc(C(C)C)c(N/C(=N/N=C/c2ccc(-c3nn(C)c(N4Cc5cc(OC(F)(F)F)ccc5C4=O)c3C)cc2)SCOC(=O)C(C)C)c1` [C-3, [(Z)-N'-[(E)-[4-[1,4-dimethyl-5-[1-oxo-5-(trifluoromethoxy)isoindolin-2-yl]pyrazol-3-yl]phenyl]methyleneamino]-N-(2-isopropyl-5-methyl-phenyl)carbamimidoyl]sulfanylmethyl 2-methylpropanoate], the mortality at 300 ppm in experiment [1] and in experiment [4] was at least 75% in each case. For the same compound, the mortality at 800 ppm in experiment [2] was at least 50%; in experiment [7] it was at least 75%; in experiment [5], at least 75%; in experiment [6], at least 75%.

`CCOC(=O)OCS/C(=N\N=C\c1ccc(-c2nn(C)c(N3Cc4cc(OC(F)(F)F)ccc4C3=O)c2C)cc1)Nc1cc(C)ccc1C(C)C` [C-4, [(Z)-N'-[(E)-[4-[1,4-dimethyl-5-[1-oxo-5-(trifluoromethoxy)isoindolin-2-yl]pyrazol-3-yl]phenyl]methyleneamino]-N-(2-isopropyl-5-methyl-phenyl)carbamimidoyl]sulfanylmethyl ethyl carbonate]: the mortality at 300 ppm in experiment [1] and in experiment [4] was at least 75% in each case. In addition, the mortality at 800 ppm in experiment [2] is at least 50%; in experiment [7], at least 75%; in experiment [5], at least 75%; in experiment [6], at least 75%.

Take `Cc1ccc(C(C)C)c(NC(=S)N/N=C/c2ccc(-c3nn(C)c(N4CCc5cc(OC(F)(F)F)ccc5C4=O)c3C)cc2)c1` [C-7, 1-[(E)-[4-[1,4-dimethyl-5-[1-oxo-6-(trifluoromethoxy)-3,4-dihydroisoquinolin-2-yl]pyrazol-3-yl]phenyl]methyleneamino]-3-(2-isopropyl-5-methyl-phenyl)thiourea]: the mortality at 300 ppm in experiment [1] and in experiment [4] was at least 75% throughout. Further, the mortality at 800 ppm in experiment [2] is at least 50%; in experiment [7], at least 75%; in experiment [5], at least 75%; in experiment [6], at least 75%.

As for `Cc1ccc(C(C)C)c(N2C(=O)CS/C2=N\N=C\c2ccc(-c3nn(C)c(N4CCc5cc(OC(F)(F)F)ccc5C4=O)c3C)cc2)c1` [C-8, (2Z)-2-[(E)-[4-[1,4-dimethyl-5-[1-oxo-6-(trifluoromethoxy)-3,4-dihydroisoquinolin-2-yl]pyrazol-3-yl]phenyl]methylenehydrazono]-3-(2-isopropyl-5-methyl-phenyl)thiazolidin-4-one], the mortality at 300 ppm in experiment [1], in experiment [3] and in experiment [4] was at least 75% in each case. Moreover, the values for the mortality at 800 ppm in experiment [2], in experiment [5] and in experiment [6] were at least 50%, at least 75% and at least 75%, respectively.

As for `Cc1ccc(C(C)C)c(N2C(=O)CS/C2=N\N=C\c2ccc(-c3nc(N4CCc5cc(OC(F)(F)F)ccc5C4=O)n(C)n3)cc2)c1` [C-9, (2Z)-3-(2-isopropyl-5-methyl-phenyl)-2-[(E)-[4-[1-methyl-5-[1-oxo-6-(trifluoromethoxy)-3,4-dihydroisoquinolin-2-yl]-1,2,4-triazol-3-yl]phenyl]methylenehydrazono] thiazolidin-4-one], the mortality at 300 ppm in experiment [1] and in experiment [4] was at least 75% in each case. Moreover, the mortality at 800 ppm in experiment [2] is at least 50%; in experiment [7], at least 75%; in experiment [5], at least 75%; in experiment [6] it was at least 75%.

Take `Cc1ccc(C(C)C)c(N2C(=O)CS/C2=N\C(=O)Nc2ccc(-c3nn(C)c(N4CCc5cc(OC(F)(F)F)ccc5C4=O)c3C)cc2)c1` [C-11, (3Z)-1-[4-[1,4-dimethyl-5-[1-oxo-6-(trifluoromethoxy)-3,4-dihydroisoquinolin-2-yl]pyrazol-3-yl]phenyl]-3-[3-(2-isopropyl-5-methyl-phenyl)-4-oxo-thiazolidin-2-ylidene]urea]: the mortality at 300 ppm in experiment [1], in experiment [3] and in experiment [4] was at least 75% each time. The mortality at 800 ppm in experiment [2] was at least 50%; in experiment [5] it was at least 75%; in experiment [6], at least 75%.

As for `Cc1ccc(C(C)C)c(N2C(=O)CS/C2=N\C(=O)Nc2ccc(-c3nn(C)c(N4CCc5cc(OC(F)(F)F)ccc5C4=O)c3C)cc2Cl)c1` [C-12, (3Z)-1-[2-chloro-4-[1,4-dimethyl-5-[1-oxo-6-(trifluoromethoxy)-3,4-dihydroisoquinolin-2-yl]pyrazol-3-yl]phenyl]-3-[3-(2-isopropyl-5-methyl-phenyl)-4-oxo-thiazolidin-2-ylidene] urea], the mortality at 300 ppm in experiment [1], in experiment [3] and in experiment [4] was at least 75% in each case. In addition, the values for the mortality at 800 ppm in experiment [2], in experiment [5] and in experiment [6] were at least 50%, at least 75% and at least 75%, respectively.
